US8134015B2, “Compound inhibiting in vivo phosphorous transport and medicine containing the same” (Kyowa Hakko Kirin Co., Ltd., priority 2003, dated 2012)
pIC50: −log10 of the molar value.

Target: T1, rat NaPi-2b (Rattus norvegicus, UniProt Q9JJ09)
T1 construct: expressed in transfected cells; host or cells: Xenopus oocytes injected with cRNA
T1 sequence (Q9JJ09 1-695): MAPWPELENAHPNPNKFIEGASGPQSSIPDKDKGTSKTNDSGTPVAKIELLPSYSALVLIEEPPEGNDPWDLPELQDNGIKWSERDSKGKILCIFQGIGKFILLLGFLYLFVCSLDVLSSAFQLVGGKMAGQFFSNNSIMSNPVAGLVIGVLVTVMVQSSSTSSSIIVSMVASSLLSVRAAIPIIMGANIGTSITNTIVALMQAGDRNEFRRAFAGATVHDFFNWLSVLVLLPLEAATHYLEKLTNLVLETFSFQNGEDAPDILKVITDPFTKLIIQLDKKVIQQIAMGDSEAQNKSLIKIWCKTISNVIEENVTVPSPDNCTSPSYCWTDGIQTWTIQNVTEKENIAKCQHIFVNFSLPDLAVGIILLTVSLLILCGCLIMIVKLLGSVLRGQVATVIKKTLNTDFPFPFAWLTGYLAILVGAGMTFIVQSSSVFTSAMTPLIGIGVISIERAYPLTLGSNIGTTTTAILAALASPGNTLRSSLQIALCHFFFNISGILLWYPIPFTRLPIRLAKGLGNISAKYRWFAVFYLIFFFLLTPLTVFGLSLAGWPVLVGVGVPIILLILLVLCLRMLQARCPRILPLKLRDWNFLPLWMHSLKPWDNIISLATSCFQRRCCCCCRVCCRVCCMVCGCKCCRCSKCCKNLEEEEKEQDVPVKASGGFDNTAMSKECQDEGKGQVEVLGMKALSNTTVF
Assay: Sodium-dependent phosphate uptake of Xenopus oocytes which expressed NaPi-2b (32P)
Assay type: cell-based
Conditions: for pIC50: Xenopus oocytes expressing rat NaPi-2b, 32P radioactive phosphorus, read-out: IC50 (phosphate uptake inhibitory activity); for inhibition at 300 µM: phosphate uptake, oocytes expressing rat NaPi-2b, determined from inhibition curve
In short: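 Steps: rat NaPi-2b cDNA cloned from small intestine; cRNA made and injected into oocytes; 2-day expression; 32P phosphate uptake with compound; % inhibition at 300/100 μM taken from one curve.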

Row | Structure (SMILES) | pIC50 | inhibition at 300 µM
1 | CCN(CCO)Cc1ccc(C(=O)Nc2ccc(Cl)cc2C(=O)N/N=C/c2ccc(Cl)c(C(F)(F)F)c2)cc1 [Compound 437, N-[4-Chloro-2-(4-chloro-3-trifluoromethyl-benzylidene-hydrazinocarbonyl)-phenyl]-4-{[ethyl-(2-hydroxy-ethyl)-amino]-methyl}-benzamide] | > 5.52 | –
2 | COc1ccc(/C=N/NC(=O)c2c(C)csc2NC(=O)c2cccc(CN3CCN(CCO)CC3)c2)cc1 [Compound 580, 3-[4-(2-Hydroxy-ethyl)-piperazin-1-ylmethyl]-N-[3-(4-methoxy-benzylidene-hydrazinocarbonyl)-4-methyl-thiophen-2-yl]-benzamide] | > 5.52 | –
3 | Cc1csc(C(=O)N/N=C/c2ccc(F)cc2)c1NC(=O)c1cccc(CN2CCN(CCO)CC2)c1 [Compound 534, N-[2-(4-Fluoro-benzylidene-hydrazinocarbonyl)-4-methyl-thiophen-3-yl]-3-[4-(2-hydroxy-ethyl)-piperazin-1-ylmethyl]-benzamide] | – | 43.8%
4 | C/C(=N\NC(=O)c1ccccc1NC(=O)c1cccnc1)c1ccc(C)cc1 [Compound 251, N-[2-(1-p-Toluyl-ethylidene-hydrazinocarbonyl)-phenyl]-nicotinamide] | – | 31.2%
5 | COc1ccc(C(=O)Nc2ccc(Br)cc2C(=O)N/N=C/c2ccc(F)cc2)cc1OC [Compound 61, N-[4-Bromo-2-(4-fluoro-benzylidene-hydrazinocarbonyl)-phenyl]-3,4-dimethoxy-benzamide] | 6.51 | –
6 | Cc1ccc(/C=N/NC(=O)c2cc(Cl)ccc2NC(=O)c2ccc(CN(C)CCO)cc2)cc1C [Compound 416, N-[4-Chloro-2-(3,4-dimethyl-benzylidene-hydrazinocarbonyl)-phenyl]-4-{[(2-hydroxy-ethyl)-methyl-amino]-methyl}-benzamide] | 5.49 | –
7 | CCN(CC)CCN(C)Cc1cccc(C(=O)Nc2ccc(I)cc2C(=O)N/N=C/c2cccc(O)c2)c1 [Compound 480, 3-{[(2-Diethylamino-ethyl)-methyl-amino]-methyl}-N-[2-(3-hydroxy-benzylidene-hydrazinocarbonyl)-4-iodo-phenyl]-benzamide] | > 5.52 | –
8 | Cc1cccc(/C=N/NC(=O)c2cc(Br)ccc2NC(=O)c2ccccn2)c1 [Compound 497, Pyridin-2-carboxylic acid [4-bromo-2-(3-methyl-benzylidene-hydrazinocarbonyl)-phenyl]-amide] | 6.29 | –
9 | Cc1ccc(CNNC(=O)c2c(C)csc2NC(=O)c2cccc(CSCCCO)c2)cc1C [Compound 645, N-{3-[N′-(3,4-Dimethyl-benzyl)-hydrazinocarbonyl]-4-methyl-thiophen-2-yl}-3-(3-hydroxy-propylsulfanylmethyl)-benzamide] | > 5.52 | –
10 | COc1ccc(C(=O)Nc2ccccc2C(=O)N/N=C/c2cccc(Cl)c2)cc1OC [Compound 35, N-[2-(3-Chloro-benzylidene-hydrazinocarbonyl)-phenyl]-3,4-dimethoxy-benzamide] | 5.49 | –
11 | CCN(CC)CCOc1ccc(NC(=O)c2ccc(OC)c(OC)c2)c(C(=O)N/N=C/c2ccc(F)cc2)c1 [Compound 140, N-[4-(2-Diethylamino-ethoxy)-2-(4-fluoro-benzylidene-hydrazinocarbonyl)-phenyl]-3,4-dimethoxy-benzamide] | 4.13 | –
12 | Cc1ccc(/C=N/NC(=O)c2c(C)csc2NC(=O)c2cccc(CSc3nc[nH]n3)c2)cc1C [Compound 551, N-[3-(3,4-Dimethyl-benzylidene-hydrazinocarbonyl)-4-methyl-thiophen-2-yl]-3-(1H-[1,2,4]triazol-3-ylsulfanylmethyl)-benzamide] | 6.33 | –
13 | O=C(Nc1ccc(Br)cc1C(=O)N/N=C/c1cccc(F)c1)c1cccc(CSc2nc[nH]n2)c1 [Compound 271, N-[4-Bromo-2-(3-fluoro-benzylidene-hydrazinocarbonyl)-phenyl]-3-(1H-[1,2,4]triazol-3-ylsulfanylmethyl)-benzamide] | 6.68 | –
14 | Cc1csc(NC(=O)c2cccc(CN3CCN(CCO)CC3)c2)c1C(=O)N/N=C/c1cccc(F)c1 [Compound 578, N-[3-(3-Fluoro-benzylidene-hydrazinocarbonyl)-4-methyl-thiophen-2-yl]-3-[4-(2-hydroxy-ethyl)-piperazin-1-ylmethyl]-benzamide] | > 5.52 | –
15 | O=C(Nc1ccc(Br)cc1C(=O)N/N=C/c1ccc(Cl)c(C(F)(F)F)c1)c1ccno1 [Compound 513, Isoxazole-5-carboxylic acid [4-bromo-2-(4-chloro-3-trifluoromethyl-benzylidene-hydrazinocarbonyl)-phenyl]-amide] | 4.80 | –

Second part, the compound after the results:

Row | pIC50 | inhibition at 300 µM | Structure (SMILES)
16 | 5.34 | – | COc1ccc(/C=N/NC(=O)c2c(C)csc2NC(=O)c2cccc(CN(C)C)c2)cc1 [Compound 825, 3-Dimethylaminomethyl-N-[3-(4-methoxy-benzylidene-hydrazinocarbonyl)-4-methyl-thiophen-2-yl]-benzamide]
17 | 4.86 | – | O=C(Nc1cscc1C(=O)N/N=C/c1cccc(F)c1)c1cccc(CN2CCN(CCO)CC2)c1 [Compound 980, N-[4-(3-Fluoro-benzylidene-hydrazinocarbonyl)-thiophen-3-yl]-3-[4-(2-hydroxy-ethyl)-piperazin-1-ylmethyl]-benzamide]
18 | 4.92 | – | O=C(Nc1ccc(Br)cc1C(=O)NN=Cc1ccc(Cl)c(C(F)(F)F)c1)c1ccc(CNC(CN2CCOCC2)c2ccccc2)cc1 (stereo not shown) [Compound 747, N-[4-Bromo-2-(4-chloro-3-trifluoromethyl-benzylidene-hydrazinocarbonyl)-phenyl]-4-[(2-morpholin-4-yl-1-phenyl-ethylamino)-methyl]-benzamide]
19 | > 5.52 | – | Cc1ccc(/C=N/NC(=O)c2cc(Cl)ccc2NC(=O)c2cccc(CS(=O)(=O)Cc3ccco3)c2)cc1C [Compound 686, N-[4-Chloro-2-(3,4-dimethyl-benzylidene-hydrazinocarbonyl)-phenyl]-3-(furan-2-ylmethanesulfonylmethyl)-benzamide]
20 | 4.22 | – | CC(O)CN(Cc1cccc(C(=O)Nc2ccc(OCC(O)CN3CCOCC3)cc2C(=O)N/N=C/c2ccc(Cl)c(C(F)(F)F)c2)c1)CC(C)O (stereo not shown) [Compound 954, 3-{[Bis-(2-hydroxy-propyl)-amino]-methyl}-N-[2-(4-chloro-3-trifluoromethyl-benzylidene-hydrazinocarbonyl)-4-(2-hydroxy-3-morpholin-4-yl-propoxy)-phenyl]-benzamide]
21 | 4.88 | – | CCN1CC(NCc2ccc(-c3nc4ccc(Br)cc4c(=O)n3/N=C/c3cccc(F)c3)cc2)CN1CC [Compound 751, 6-Bromo-2-{4-[(1,2-diethyl-pyrazolidin-4-ylamino)-methyl]-phenyl}-3-[(3-fluoro-benzylidene)-amino]-3H-quinazolin-4-one]
22 | 5.38 | – | CCN(CC)CCN(CCN(CC)CC)Cc1cccc(C(=O)Nc2scc(C)c2C(=O)N/N=C/c2ccc(OC)cc2)c1 [Compound 843, 3-{[Bis-(2-diethylamino-ethyl)-amino]-methyl}-N-[3-(4-methoxy-benzylidene-hydrazinocarbonyl)-4-methyl-thiophen-2-yl]-benzamide]
23 | > 6.00 | – | CCN(CC)CCN(C)Cc1cccc(C(=O)Nc2ccc(OCC3CCCCC3)cc2C(=O)N/N=C/c2cccc(F)c2)c1 [Compound 1046, N-[4-Cyclohexylmethoxy-2-(3-fluoro-benzylidene-hydrazinocarbonyl)-phenyl]-3-{[(2-diethylamino-ethyl)-methyl-amino]-methyl}-benzamide]
24 | > 5.52 | – | Cc1ccc(/C=N/NC(=O)c2cc(Cl)ccc2NC(=O)c2cccc(C[S+]([O-])Cc3ccco3)c2)cc1C (stereo not shown) [Compound 687, N-[4-Chloro-2-(3,4-dimethyl-benzylidene-hydrazinocarbonyl)-phenyl]-3-(furan-2-ylmethanesulfinylmethyl)-benzamide]
25 | – | 81.8% | CCSCCNCc1ccc(C(=O)Nc2ccc(Br)cc2C(=O)N/N=C/c2ccc(F)cc2)cc1 [Compound 767, N-[4-Bromo-2-(4-fluoro-benzylidene-hydrazinocarbonyl)-phenyl]-4-[(2-ethylsulfanyl-ethylamino)-methyl]-benzamide]
26 | – | 40.2% | COc1ccc(/C=N/NC(=O)c2cc(Br)sc2NC(=O)c2cccc(CN(C)C)c2)cc1 [Compound 930, N-[5-Bromo-3-(4-methoxy-benzylidene-hydrazinocarbonyl)-thiophen-2-yl]-3-dimethylaminomethyl-benzamide]
27 | 4.53 | – | CCN(CC)Cc1cccc(C(=O)Nc2sc(CN3CCCCC3)c(C)c2C(=O)N/N=C/c2ccc(Cl)c(C(F)(F)F)c2)c1 [Compound 956, N-[3-(4-Chloro-3-trifluoromethyl-benzylidene-hydrazinocarbonyl)-4-methyl-5-piperidin-1-ylmethyl-thiophen-2-yl]-3-diethylaminomethyl-benzamide]
28 | – | 67.5% | CC(O)CN(Cc1cccc(C(=O)Nc2ncccc2C(=O)N/N=C/c2cccc(F)c2)c1)CC(C)O (stereo not shown) [Compound 964, 3-{[Bis-(2-hydroxy-propyl)-amino]-methyl}-N-[3-(3-fluoro-benzylidene-hydrazinocarbonyl)-pyridin-2-yl]-benzamide]
